The results in this text go back to patent publication US20260193226A1, “MICROBIOCIDAL TETRAHYDROISOQUINOLINE DERIVATIVES” (SYNGENTA CROP PROTECTION AG, priority 2022, published 2026).

Where only a bound is given, the exact number is not on record here.

The test system of one test is Alternaria solani. The test is described as follows: Alternaria solani / tomato / leaf disc (early blight). It is filed as in vivo. The following applies: foliar, compared to untreated control. How it is done:
Example B1: Alternaria solani/Tomato/Leaf Disc (Early Blight) Tomato leaf disks cv. Baby are placed on agar in multiwell plates (24-well format) and sprayed with the formulated test compound diluted in water. The leaf disks are inoculated with a spore suspension of the fungus 2 days after application. The inoculated leaf disks are incubated at 23° C./21° C.

Test [1] deals with Mycosphaerella arachidis (Cercospora arachidicola). The test is described as follows: Mycosphaerella arachidis (Cercospora arachidicola) / liquid culture (early leaf spot). The following applies: compared to untreated control. It is filed as cell-based. As for the experimental part:
Example B9: Mycosphaerella arachidis (Cercospora arachidicola)/Liquid Culture (Early Leaf Spot) Conidia of the fungus from cryogenic storage are directly mixed into nutrient broth (PDB potato dextrose broth). After placing a (DMSO) solution of test compound into a microtiter plate (96-well format), the nutrient broth containing the fungal spores is added. The test plates are incubated at 24° C. and the inhibition of growth is determined photometrically 4 to 5 days after application.

Another test relates to Pyrenophora teres. Put plainly: Pyrenophora teres / barley / leaf disc preventative (net blotch). It is filed as in vivo. The following applies: foliar, compared to untreated control. As for the experimental part: Example B12: Pyrenophora teres/Barley/Leaf Disc Preventative (Net Blotch) Barley leaf segments cv. Hasso are placed on agar in a multiwell plate (24-well format) and sprayed with the formulated test compound diluted in water. The leaf segments are inoculated with a spore suspension of the fungus 2 days after application. The inoculated leaf segments are incubated at 20° C. and 65% rh under a light regime of 12 h light/12 h darkness in a climate cabinet and the activity of a compound is assessed as disease control compared to untreated when an appropriate level of disease damage appears in untreated check leaf segments (5 to 7 days after application).

The next test has as its system Pythium ultimum. Put plainly: Pythium ultimum / liquid culture (seedling damping off). It is filed as cell-based. The following applies: 20 ppm, compared to untreated control. As for the experimental part: Example B13: Pythium ultimum/Liquid Culture (Seedling Damping Off) Mycelia fragments and oospores of a newly grown liquid culture of the fungus are directly mixed into nutrient broth (PDB potato dextrose broth). After placing a (DMSO) solution of test compound into a microtiter plate (96-well format), the nutrient broth containing the fungal mycelia/spore mixture is added. The test plates are incubated at 24° C. and the inhibition of growth is determined photometrically 2 to 3 days after application.

Test [2] concerns Mycosphaerella graminicola (Septoria tritici). The test is described as follows: Mycosphaerella graminicola (Septoria tritici) / liquid culture (Septoria blotch). The following applies: Zymoseptoria tritici, compared to untreated control. It is filed as cell-based. How it is done:
Example B15: Mycosphaerella graminicola (Septoria tritici)/Liquid Culture (Septoria Blotch) Conidia of the fungus from cryogenic storage are directly mixed into nutrient broth (PDB potato dextrose broth). After placing a (DMSO) solution of test compound into a microtiter plate (96-well format), the nutrient broth containing the fungal spores is added. The test plates are incubated at 24° C. and the inhibition of growth is determined photometrically 4 to 5 days after application.

Another test deals with Phytophthora infestans. It is filed as in vivo. The following applies: 200 ppm; tomato leaf disc preventative; compared to untreated control.
Test [3] concerns Glomerella lagenarium (Colletotrichum lagenarium). The test is described as follows: Glomerella lagenarium (Colletotrichum lagenarium) / liquid culture (anthracnose). The following applies: Colletotrichum orbiculare, compared to untreated control. It is filed as cell-based. How it is done:
Example B3: Glomerella lagenarium (Colletotrichum lagenarium)/Liquid Culture (Anthracnose) Conidia of the fungus from cryogenic storage are directly mixed into nutrient broth (PDB potato dextrose broth). After placing a (DMSO) solution of test compound into a microtiter plate (96-well format), the nutrient broth containing the fungal spores is added. The test plates are incubated at 24° C. and the inhibition of growth is measured photometrically 3 to 4 days after application.

The subject of test [4] is Monographella nivalis (Microdochium nivale). The test is described as follows: Monographella nivalis (Microdochium nivale) / liquid culture (foot rot cereals). It is filed as cell-based. The following applies: compared to untreated control. How it is done: Example B8: Monographella nivalis (Microdochium nivale)/Liquid Culture (Foot Rot Cereals) Conidia of the fungus from cryogenic storage are directly mixed into nutrient broth (PDB potato dextrose broth). After placing a (DMSO) solution of test compound into a microtiter plate (96-well format), the nutrient broth containing the fungal spores is added. The test plates are incubated at 24° C. and the inhibition of growth is determined photometrically 4 to 5 days after application.

Test [5] has as its system Gibberella zeae (Fusarium graminearum). It is filed as in vivo. The following applies: 200 ppm; wheat spikelet preventative; compared to untreated control.

The pest or weed control is how far the test organism was held down. High values mean a strong effect, low ones a weak effect. A word on the inhibition of growth: it is the share of the control response that was lost under treatment. A higher inhibition of growth goes with a response far below the control. As for `Cc1c(C2CN(C(=O)CCc3ccc(F)cc3F)Cc3ccccc32)cnn1C` (centres unmarked) [Compound P-6, 3-(2,4-difluorophenyl)-1-[4-(1,5-dimethylpyrazol-4-yl)-3,4-dihydro-1H-isoquinolin-2-yl]propan-1-one], the pest or weed control at 200 ppm with Alternaria solani and in the test on Pyrenophora teres was not below 80% throughout. Moreover, the inhibition of growth at 20 ppm in [1] and in test [2] was not below 80% each time. In addition, the “control of Pythium ultimum” value in the test on Pythium ultimum is “at least 80%”.
On to `Cc1c(C2CN(C(=O)CCC3CCCC3)Cc3ccccc32)cnn1C` (centres unmarked) [Compound P-17, 3-cyclopentyl-1-[4-(1,5-dimethylpyrazol-4-yl)-3,4-dihydro-1H-isoquinolin-2-yl]propan-1-one], for which the “control of Phytophthora infestans” value in the test on Phytophthora infestans is listed as “at least 80%”. For the same compound, the inhibition of growth at 20 ppm in test [2] is not below 80%.
For `Cc1c([C@H]2CN(C(=O)CCCCC3CC3)[C@@H](C)c3ccccc32)cnn1C` [Compound P-47, 5-cyclopropyl-1-[(1S,4S)-4-(1,5-dimethylpyrazol-4-yl)-1-methyl-3,4-dihydro-1H-isoquinolin-2-yl]pentan-1-one], the pest or weed control at 200 ppm in the test on Alternaria solani and with Pyrenophora teres was not below 80% in each case. Besides, the inhibition of growth at 20 ppm in test [3], in test [4], in [1] and in [2] was not below 80% in each case.
For the compound `Cc1c([C@H]2CN(C(=O)CCCCCC(F)F)[C@@H](C)c3ccccc32)cnn1C` [Compound P-46, 1-[(1S,4S)-4-(1,5-dimethylpyrazol-4-yl)-1-methyl-3,4-dihydro-1H-isoquinolin-2-yl]-7,7-difluoro-heptan-1-one], the pest or weed control at 200 ppm in the test with Alternaria solani and in the test with Pyrenophora teres was not below 80% throughout. Also, the inhibition of growth at 20 ppm in [3], in [4], in test [1] and in [2] was not below 80% throughout. Also, the “control of Gibberella zeae” value in test [5] was “at least 80%”.
